What was measured:
RIP3 = target: T1, RIP3 (Homo sapiens, UniProt Q9Y572); test: KINOMEscan competition binding Kd; also ADP-Glo kinase inhibition
T1 construct: gene RIPK3; kinase domain

KIT [1] = target: T2, KIT (Homo sapiens, UniProt P10721); test: KINOMEscan competition binding, single concentration […]; settings: read-out: % of control at 100 nM
MEK5 [2] = target: T3, MEK5 (Homo sapiens, UniProt Q13163); test: as above; settings: read-out: % of control at 100 nM
T3 construct: gene MAP2K5

RIP1 [3] = target: T4, RIP1 (Homo sapiens, UniProt Q13546); test: KINOMEscan competition binding Kd; also ADP-Glo kinase inhibition
T4 construct: gene RIPK1; kinase domain
T4 sequence (Q13546 1-294 limits assumed): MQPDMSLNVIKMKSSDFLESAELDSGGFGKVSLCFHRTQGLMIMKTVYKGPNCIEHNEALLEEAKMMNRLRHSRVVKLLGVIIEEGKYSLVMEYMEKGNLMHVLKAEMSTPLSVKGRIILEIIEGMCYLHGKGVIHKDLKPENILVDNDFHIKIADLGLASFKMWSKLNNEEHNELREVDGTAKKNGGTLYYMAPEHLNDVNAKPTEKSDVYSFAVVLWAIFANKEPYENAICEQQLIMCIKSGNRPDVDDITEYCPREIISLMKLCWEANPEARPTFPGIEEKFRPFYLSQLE

EPHB6 [4] = target: T5, EPHB6 (Homo sapiens, UniProt O15197); test: KINOMEscan competition binding, single concentration […]; settings: read-out: % of control at 100 nM
T5 sequence (O15197 32-1021): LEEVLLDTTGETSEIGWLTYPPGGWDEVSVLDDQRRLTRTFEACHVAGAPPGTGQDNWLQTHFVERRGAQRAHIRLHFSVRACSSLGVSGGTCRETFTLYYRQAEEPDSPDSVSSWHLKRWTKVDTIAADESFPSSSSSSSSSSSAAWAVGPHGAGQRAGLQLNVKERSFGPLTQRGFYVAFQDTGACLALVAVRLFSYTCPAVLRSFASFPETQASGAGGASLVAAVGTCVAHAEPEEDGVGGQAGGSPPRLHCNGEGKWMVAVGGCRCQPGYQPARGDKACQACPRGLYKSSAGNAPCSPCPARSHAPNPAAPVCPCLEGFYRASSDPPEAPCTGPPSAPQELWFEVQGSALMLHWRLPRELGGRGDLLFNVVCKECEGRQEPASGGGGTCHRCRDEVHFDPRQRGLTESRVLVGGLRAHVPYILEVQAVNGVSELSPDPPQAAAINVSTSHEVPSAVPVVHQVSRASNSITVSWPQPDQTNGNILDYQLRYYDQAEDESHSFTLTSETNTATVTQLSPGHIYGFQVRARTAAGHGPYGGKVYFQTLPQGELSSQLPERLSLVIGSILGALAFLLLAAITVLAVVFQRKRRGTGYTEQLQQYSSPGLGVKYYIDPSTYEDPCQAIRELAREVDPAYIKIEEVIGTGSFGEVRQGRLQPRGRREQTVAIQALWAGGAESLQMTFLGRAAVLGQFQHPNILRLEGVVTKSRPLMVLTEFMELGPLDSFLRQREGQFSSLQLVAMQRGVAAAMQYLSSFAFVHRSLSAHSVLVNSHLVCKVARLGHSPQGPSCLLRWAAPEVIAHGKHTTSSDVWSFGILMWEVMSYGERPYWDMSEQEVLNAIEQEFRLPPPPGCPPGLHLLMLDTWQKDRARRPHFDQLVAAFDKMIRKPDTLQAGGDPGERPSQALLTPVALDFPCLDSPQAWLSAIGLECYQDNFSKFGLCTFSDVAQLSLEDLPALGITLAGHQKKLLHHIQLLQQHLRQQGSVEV

CSF1R [5] = target: T6, CSF1R (Homo sapiens, UniProt P07333); test: biochemical; design: KINOMEscan competition binding assay (DiscoveRx), per cent of control at 100 nM; settings: competition binding, per cent of DMSO control; read-out: Percent Control
T6 sequence (P07333 20-972): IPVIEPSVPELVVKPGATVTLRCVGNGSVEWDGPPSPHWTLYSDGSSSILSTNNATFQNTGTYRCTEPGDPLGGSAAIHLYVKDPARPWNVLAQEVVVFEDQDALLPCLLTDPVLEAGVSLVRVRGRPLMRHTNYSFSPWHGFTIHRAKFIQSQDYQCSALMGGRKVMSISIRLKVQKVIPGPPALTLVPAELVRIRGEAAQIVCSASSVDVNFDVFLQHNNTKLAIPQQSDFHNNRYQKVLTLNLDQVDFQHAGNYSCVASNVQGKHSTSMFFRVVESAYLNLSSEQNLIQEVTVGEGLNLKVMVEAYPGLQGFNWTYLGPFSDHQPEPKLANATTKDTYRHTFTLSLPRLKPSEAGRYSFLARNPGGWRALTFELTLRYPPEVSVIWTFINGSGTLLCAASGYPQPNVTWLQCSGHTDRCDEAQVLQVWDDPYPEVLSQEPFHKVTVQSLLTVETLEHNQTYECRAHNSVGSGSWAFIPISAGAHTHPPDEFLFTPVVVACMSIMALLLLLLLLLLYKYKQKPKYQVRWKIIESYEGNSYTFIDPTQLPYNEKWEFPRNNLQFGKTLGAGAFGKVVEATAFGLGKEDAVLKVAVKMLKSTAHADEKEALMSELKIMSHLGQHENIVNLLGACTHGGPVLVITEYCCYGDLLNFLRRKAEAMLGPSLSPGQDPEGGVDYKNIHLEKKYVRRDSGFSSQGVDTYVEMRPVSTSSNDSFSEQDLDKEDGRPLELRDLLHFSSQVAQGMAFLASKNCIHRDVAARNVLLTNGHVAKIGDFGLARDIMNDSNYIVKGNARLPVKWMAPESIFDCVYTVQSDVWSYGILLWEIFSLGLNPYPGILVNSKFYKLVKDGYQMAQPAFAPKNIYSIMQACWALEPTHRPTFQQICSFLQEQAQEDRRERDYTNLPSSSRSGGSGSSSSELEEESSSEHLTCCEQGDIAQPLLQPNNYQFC
Protocol: (§1) The selectivity of GSK’074 was evaluated using KINOMEscan™ profiling service (DiscoveRx Corporation, Fremont, CA). In brief, an in vitro competition binding assay was used to evaluate GSK’074 specificity at a concentration of 100 nM against 468 human kinases including 403 non-mutant kinases and 65 mutant kinases, as described previously[33],[50]. KINOMEscan™ was also used to determine binding constants (Kd) for GSK’074 against RIP1 and RIP3. In brief, an 11-point threefold serial dilution of GSK’074 was prepared in 100% DMSO at 100× final test concentration and subsequently diluted to 1× in the assay buffer. Kds were calculated with a standard dose-response curve using the Hill equation. Curves were fitted using a non-linear least square fit with the Levenberg–Marquardt algorithm. Next, we investigated the selectivity profile of GSK’074 against a panel of 468 kinases, including 403 non-mutant kinases using the KINOMEscan™ profiling service. […] KIT, MEK5, CSF1R, or EPHB6 had no established roles in cell death and their expression levels in SMCs, with the exception of MEK5, were negligible (Supplementary Figure 3).  Fig. 6 Selectivity profile of GSK’074. Binding of GSK’074 (100 nM) against 468 human kinases (403 non-mutant kinases, 65 mutant kinases) was assessed by DiscoveRx KINOMEscan™. a Selectivity scores of GSK’074. Selectivity score was defined as the number of non-mutant kinases bound to GSK’074 <35% of control (S(35)), 10% of control (S(10)), or 1% of control (S(1)). b TREEspot map of kinases potentially targeted by GSK’074.

HPK1 = target: T7, HPK1 (Homo sapiens, UniProt Q92918); test: biochemical; design: KINOMEscan competition binding assay (DiscoveRx), per cent of control at 100 nM; settings: competition binding, per cent of DMSO control; read-out: Percent Control
T7 construct: gene MAP4K1
Protocol: as §1

FLT3(K663Q) = FLT3(K663Q) (Homo sapiens, UniProt P36888, K663Q); test: biochemical; design: KINOMEscan competition binding assay (DiscoveRx), per cent of control at 100 nM; settings: competition binding, per cent of DMSO control; read-out: Percent Control
Protocol: as §1

[6] = target: T8, ABL1(E255K)-phosphorylated (Homo sapiens, UniProt P00519, E255K); test: biochemical; design: KINOMEscan competition binding assay (DiscoveRx), per cent of control at 100 nM; settings: competition binding, per cent of DMSO control; read-out: Percent Control
T8 construct: phosphorylated
Protocol: as §1

KIT(V559D) = KIT(V559D) (Homo sapiens, UniProt P10721, V559D); test: biochemical; design: KINOMEscan competition binding assay (DiscoveRx), per cent of control at 100 nM; settings: competition binding, per cent of DMSO control; read-out: Percent Control
Protocol: as §1

RIPK2 = RIPK2 (Homo sapiens, UniProt O43353); test: biochemical; design: KINOMEscan competition binding assay (DiscoveRx), per cent of control at 100 nM; settings: competition binding, per cent of DMSO control; read-out: Percent Control
Protocol: as §1

[7] = target: T9, ABL1(H396P)-nonphosphorylated (Homo sapiens, UniProt P00519, H396P); test: biochemical; design: KINOMEscan competition binding assay (DiscoveRx), per cent of control at 100 nM; settings: competition binding, per cent of DMSO control; read-out: Percent Control
T9 construct: nonphosphorylated
Protocol: as §1

LOK = target: T10, LOK (Homo sapiens, UniProt O94804); test: biochemical; design: KINOMEscan competition binding assay (DiscoveRx), per cent of control at 100 nM; settings: competition binding, per cent of DMSO control; read-out: Percent Control
T10 construct: gene STK10
Protocol: as §1

[8] = target: T11, ABL1(Q252H)-nonphosphorylated (Homo sapiens, UniProt P00519, Q252H); test: biochemical; design: KINOMEscan competition binding assay (DiscoveRx), per cent of control at 100 nM; settings: competition binding, per cent of DMSO control; read-out: Percent Control
T11 construct: nonphosphorylated
Protocol: as §1

[9] = target: T12, ABL1(T315I)-nonphosphorylated (Homo sapiens, UniProt P00519, T315I); test: biochemical; design: KINOMEscan competition binding assay (DiscoveRx), per cent of control at 100 nM; settings: competition binding, per cent of DMSO control; read-out: Percent Control
T12 construct: nonphosphorylated
Protocol: as §1

AURKB = AURKB (Homo sapiens, UniProt Q96GD4); test: biochemical; design: KINOMEscan competition binding assay (DiscoveRx), per cent of control at 100 nM; settings: competition binding, per cent of DMSO control; read-out: Percent Control
Protocol: as §1

EPHB6 [10] = target: T5, EPHB6; test: biochemical; design: KINOMEscan competition binding assay (DiscoveRx), per cent of control at 100 nM; settings: competition binding, per cent of DMSO control; read-out: Percent Control
Protocol: as §1

PDGFRB = PDGFRB (Homo sapiens, UniProt P09619); test: biochemical; design: KINOMEscan competition binding assay (DiscoveRx), per cent of control at 100 nM; settings: competition binding, per cent of DMSO control; read-out: Percent Control
Protocol: as §1

PRKD2 = PRKD2 (Homo sapiens, UniProt Q9BZL6); test: biochemical; design: KINOMEscan competition binding assay (DiscoveRx), per cent of control at 100 nM; settings: competition binding, per cent of DMSO control; read-out: Percent Control
Protocol: as §1

KIT(L576P) = KIT(L576P) (Homo sapiens, UniProt P10721, L576P); test: biochemical; design: KINOMEscan competition binding assay (DiscoveRx), per cent of control at 100 nM; settings: competition binding, per cent of DMSO control; read-out: Percent Control
Protocol: as §1

RIP1 [11] = target: T4, RIP1; test: biochemical; design: KINOMEscan competition binding assay (DiscoveRx), per cent of control at 100 nM; settings: competition binding, per cent of DMSO control; read-out: Percent Control
Protocol: as §1

[12] = target: T13, ABL1(T315I)-phosphorylated (Homo sapiens, UniProt P00519, T315I); test: biochemical; design: KINOMEscan competition binding assay (DiscoveRx), per cent of control at 100 nM; settings: competition binding, per cent of DMSO control; read-out: Percent Control
T13 construct: phosphorylated
Protocol: as §1

FLT3 = FLT3 (Homo sapiens, UniProt P36888); test: biochemical; design: KINOMEscan competition binding assay (DiscoveRx), per cent of control at 100 nM; settings: competition binding, per cent of DMSO control; read-out: Percent Control
Protocol: as §1

MAP4K5 = MAP4K5 (Homo sapiens, UniProt Q9Y4K4); test: biochemical; design: KINOMEscan competition binding assay (DiscoveRx), per cent of control at 100 nM; settings: competition binding, per cent of DMSO control; read-out: Percent Control
Sequence of MAP4K5 (Q9Y4K4 whole entry): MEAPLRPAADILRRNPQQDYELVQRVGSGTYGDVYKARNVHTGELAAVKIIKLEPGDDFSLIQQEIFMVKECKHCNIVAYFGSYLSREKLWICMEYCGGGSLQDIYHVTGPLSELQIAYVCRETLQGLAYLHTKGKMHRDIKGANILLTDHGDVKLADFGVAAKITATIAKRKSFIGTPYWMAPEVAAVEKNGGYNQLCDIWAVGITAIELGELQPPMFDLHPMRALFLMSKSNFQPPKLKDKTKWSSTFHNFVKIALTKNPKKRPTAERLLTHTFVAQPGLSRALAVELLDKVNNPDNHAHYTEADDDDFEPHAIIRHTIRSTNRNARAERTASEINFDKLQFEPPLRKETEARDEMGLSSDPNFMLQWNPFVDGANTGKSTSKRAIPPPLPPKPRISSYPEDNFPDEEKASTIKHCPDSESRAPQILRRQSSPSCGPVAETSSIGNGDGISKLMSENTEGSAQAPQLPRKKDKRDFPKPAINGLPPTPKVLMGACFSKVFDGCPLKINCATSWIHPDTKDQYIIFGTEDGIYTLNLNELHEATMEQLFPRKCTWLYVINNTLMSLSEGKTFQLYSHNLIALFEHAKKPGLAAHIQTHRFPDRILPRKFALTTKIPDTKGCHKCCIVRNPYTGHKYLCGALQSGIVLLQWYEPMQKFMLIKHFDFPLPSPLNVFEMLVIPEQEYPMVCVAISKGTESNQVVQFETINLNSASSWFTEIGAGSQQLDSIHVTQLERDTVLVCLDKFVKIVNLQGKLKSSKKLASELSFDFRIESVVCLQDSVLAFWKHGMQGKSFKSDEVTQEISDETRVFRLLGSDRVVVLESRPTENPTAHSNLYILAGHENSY
Protocol: as §1

KIT [13] = target: T2, KIT; test: biochemical; design: KINOMEscan competition binding assay (DiscoveRx), per cent of control at 100 nM; settings: competition binding, per cent of DMSO control; read-out: Percent Control
Protocol: as §1

ABL1-phosphorylated = target: T14, ABL1-phosphorylated (Homo sapiens, UniProt P00519); test: biochemical; design: KINOMEscan competition binding assay (DiscoveRx), per cent of control at 100 nM; settings: competition binding, per cent of DMSO control; read-out: Percent Control
T14 construct: phosphorylated
Protocol: as §1

PDGFRA = PDGFRA (Homo sapiens, UniProt P16234); test: biochemical; design: KINOMEscan competition binding assay (DiscoveRx), per cent of control at 100 nM; settings: competition binding, per cent of DMSO control; read-out: Percent Control
Protocol: as §1

ABL1-nonphosphorylated = target: T15, ABL1-nonphosphorylated (Homo sapiens, UniProt P00519); test: biochemical; design: KINOMEscan competition binding assay (DiscoveRx), per cent of control at 100 nM; settings: competition binding, per cent of DMSO control; read-out: Percent Control
T15 construct: nonphosphorylated
Protocol: as §1

MST1 = target: T16, MST1 (Homo sapiens, UniProt Q13043); test: biochemical; design: KINOMEscan competition binding assay (DiscoveRx), per cent of control at 100 nM; settings: competition binding, per cent of DMSO control; read-out: Percent Control
T16 construct: gene STK4
T16 sequence (Q13043 whole entry): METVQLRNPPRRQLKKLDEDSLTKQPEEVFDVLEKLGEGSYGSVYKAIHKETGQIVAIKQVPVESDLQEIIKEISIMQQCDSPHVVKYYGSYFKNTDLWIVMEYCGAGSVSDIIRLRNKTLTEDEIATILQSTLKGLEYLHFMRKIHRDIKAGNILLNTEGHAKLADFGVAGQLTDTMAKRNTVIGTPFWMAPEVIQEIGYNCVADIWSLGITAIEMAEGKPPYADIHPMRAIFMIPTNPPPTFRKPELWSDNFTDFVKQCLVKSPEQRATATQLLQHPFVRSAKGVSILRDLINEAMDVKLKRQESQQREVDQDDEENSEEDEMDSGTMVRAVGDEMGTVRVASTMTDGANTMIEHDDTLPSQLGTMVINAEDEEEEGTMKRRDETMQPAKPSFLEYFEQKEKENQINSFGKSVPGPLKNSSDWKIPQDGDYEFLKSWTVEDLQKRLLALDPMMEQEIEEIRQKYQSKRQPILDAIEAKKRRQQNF
Protocol: as §1

MEK5 [14] = target: T3, MEK5; test: biochemical; design: KINOMEscan competition binding assay (DiscoveRx), per cent of control at 100 nM; settings: competition binding, per cent of DMSO control; read-out: Percent Control
Protocol: as §1

AURKC = AURKC (Homo sapiens, UniProt Q9UQB9); test: biochemical; design: KINOMEscan competition binding assay (DiscoveRx), per cent of control at 100 nM; settings: competition binding, per cent of DMSO control; read-out: Percent Control
Protocol: as §1

CSF1R [15] = target: T6, CSF1R; test: KINOMEscan competition binding, single concentration […]; settings: read-out: % of control at 100 nM

T3 sequence (Q13163 whole entry): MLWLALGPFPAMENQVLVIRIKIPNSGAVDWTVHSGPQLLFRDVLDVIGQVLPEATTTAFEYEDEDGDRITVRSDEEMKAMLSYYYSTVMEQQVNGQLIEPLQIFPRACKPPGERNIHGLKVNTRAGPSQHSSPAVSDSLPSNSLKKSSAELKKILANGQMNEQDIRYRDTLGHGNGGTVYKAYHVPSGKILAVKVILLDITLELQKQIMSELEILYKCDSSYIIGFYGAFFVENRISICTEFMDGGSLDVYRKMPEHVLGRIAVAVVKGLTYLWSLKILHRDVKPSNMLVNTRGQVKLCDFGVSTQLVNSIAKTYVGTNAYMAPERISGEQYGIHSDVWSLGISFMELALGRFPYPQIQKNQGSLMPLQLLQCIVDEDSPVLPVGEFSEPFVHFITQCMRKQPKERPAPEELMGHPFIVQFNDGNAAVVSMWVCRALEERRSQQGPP
T2 sequence (P10721 26-976): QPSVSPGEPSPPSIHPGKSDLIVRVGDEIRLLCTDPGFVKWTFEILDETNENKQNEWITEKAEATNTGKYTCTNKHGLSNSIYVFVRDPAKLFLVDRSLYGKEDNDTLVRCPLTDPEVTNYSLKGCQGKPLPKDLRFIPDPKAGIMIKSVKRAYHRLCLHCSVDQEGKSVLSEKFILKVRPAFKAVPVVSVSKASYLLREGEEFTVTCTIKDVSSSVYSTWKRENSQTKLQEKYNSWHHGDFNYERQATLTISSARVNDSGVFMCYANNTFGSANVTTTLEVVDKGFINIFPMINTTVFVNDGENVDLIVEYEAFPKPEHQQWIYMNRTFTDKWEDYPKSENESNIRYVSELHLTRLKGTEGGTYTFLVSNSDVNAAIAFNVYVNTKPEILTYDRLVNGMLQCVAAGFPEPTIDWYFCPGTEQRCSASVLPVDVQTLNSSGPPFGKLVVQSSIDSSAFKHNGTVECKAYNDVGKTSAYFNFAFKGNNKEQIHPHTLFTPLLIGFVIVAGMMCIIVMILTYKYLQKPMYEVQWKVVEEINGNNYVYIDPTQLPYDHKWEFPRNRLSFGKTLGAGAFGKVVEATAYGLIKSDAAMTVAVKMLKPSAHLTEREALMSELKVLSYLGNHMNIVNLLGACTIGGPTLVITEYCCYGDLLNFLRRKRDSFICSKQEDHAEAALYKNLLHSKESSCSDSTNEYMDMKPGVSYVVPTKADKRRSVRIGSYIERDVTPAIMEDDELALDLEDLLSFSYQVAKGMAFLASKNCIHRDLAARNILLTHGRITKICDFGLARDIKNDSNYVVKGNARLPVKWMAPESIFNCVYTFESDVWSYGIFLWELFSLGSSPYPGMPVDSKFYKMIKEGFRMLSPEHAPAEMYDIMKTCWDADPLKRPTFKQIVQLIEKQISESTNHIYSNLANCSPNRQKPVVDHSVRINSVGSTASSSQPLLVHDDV

Cn1cc(-c2cnc(N)c3c(-c4ccc5c(c4)CCN5C(=O)Cc4ccccc4)csc23)cn1 [GSK'074, GSK2593074A]
Kd (RIP3): 0.13 µM
remaining binding at 0.1 µM (KIT [1]): < 1%
remaining binding at 0.1 µM (MEK5 [2]): < 1%
Kd (RIP1 [3]): 0.012 µM
remaining binding at 0.1 µM (EPHB6 [4]): < 1%
remaining binding at 0.1 µM (CSF1R [5]): 0.5%
remaining binding at 0.1 µM (HPK1): 30%
remaining binding at 0.1 µM (FLT3(K663Q)): 30%
remaining binding at 0.1 µM [6]: 24%
remaining binding at 0.1 µM (KIT(V559D)): 0.05%
remaining binding at 0.1 µM (RIPK2): 12%
remaining binding at 0.1 µM [7]: 2.2%
remaining binding at 0.1 µM (LOK): 30%
remaining binding at 0.1 µM [8]: 6.1%
remaining binding at 0.1 µM [9]: 0.3%
remaining binding at 0.1 µM (AURKB): 9.3%
remaining binding at 0.1 µM (EPHB6 [10]): 0.5%
remaining binding at 0.1 µM (PDGFRB): 1.3%
remaining binding at 0.1 µM (PRKD2): 32%
remaining binding at 0.1 µM (KIT(L576P)): 0%
remaining binding at 0.1 µM (RIP1 [11]): 0%
remaining binding at 0.1 µM [12]: 19%
remaining binding at 0.1 µM (FLT3): 19%
remaining binding at 0.1 µM (MAP4K5): 5.5%
remaining binding at 0.1 µM (KIT [13]): 0.35%
remaining binding at 0.1 µM (ABL1-phosphorylated): 25%
remaining binding at 0.1 µM (PDGFRA): 13%
remaining binding at 0.1 µM (ABL1-nonphosphorylated): 3.3%
remaining binding at 0.1 µM (MST1): 13%
remaining binding at 0.1 µM (MEK5 [14]): 0.1%
remaining binding at 0.1 µM (AURKC): 19%
remaining binding at 0.1 µM (CSF1R [15]): < 1%
